Reference: article PMC4893804 (Journal of medicinal chemistry, 2015)
Like-named read-outs stand apart in the source and are kept apart here.

Assays:
[1] = molecular target: HCMV DNA polymerase (UL54) (Human cytomegalovirus, UniProt P08546); assay: Enzyme assay with HCMV DNA polymerase; assay type: biochemical; settings: for IC50: activated calf thymus DNA, [3H]dTTP; for superior activity against HCMV DNA polymerase compared to thymine-α-CNP: ratio vs thymine-α-CNP
Human DNA Pol β = Human DNA Pol β (Homo sapiens, UniProt P06746); assay: Enzyme assay with human DNA polymerase β; assay type: biochemical
Human DNA Pol α = molecular target: T1, Human DNA Pol α (Homo sapiens, UniProt P09884); assay: Enzyme assay with human DNA polymerase α; assay type: biochemical
T1 sequence (P09884 1-1462): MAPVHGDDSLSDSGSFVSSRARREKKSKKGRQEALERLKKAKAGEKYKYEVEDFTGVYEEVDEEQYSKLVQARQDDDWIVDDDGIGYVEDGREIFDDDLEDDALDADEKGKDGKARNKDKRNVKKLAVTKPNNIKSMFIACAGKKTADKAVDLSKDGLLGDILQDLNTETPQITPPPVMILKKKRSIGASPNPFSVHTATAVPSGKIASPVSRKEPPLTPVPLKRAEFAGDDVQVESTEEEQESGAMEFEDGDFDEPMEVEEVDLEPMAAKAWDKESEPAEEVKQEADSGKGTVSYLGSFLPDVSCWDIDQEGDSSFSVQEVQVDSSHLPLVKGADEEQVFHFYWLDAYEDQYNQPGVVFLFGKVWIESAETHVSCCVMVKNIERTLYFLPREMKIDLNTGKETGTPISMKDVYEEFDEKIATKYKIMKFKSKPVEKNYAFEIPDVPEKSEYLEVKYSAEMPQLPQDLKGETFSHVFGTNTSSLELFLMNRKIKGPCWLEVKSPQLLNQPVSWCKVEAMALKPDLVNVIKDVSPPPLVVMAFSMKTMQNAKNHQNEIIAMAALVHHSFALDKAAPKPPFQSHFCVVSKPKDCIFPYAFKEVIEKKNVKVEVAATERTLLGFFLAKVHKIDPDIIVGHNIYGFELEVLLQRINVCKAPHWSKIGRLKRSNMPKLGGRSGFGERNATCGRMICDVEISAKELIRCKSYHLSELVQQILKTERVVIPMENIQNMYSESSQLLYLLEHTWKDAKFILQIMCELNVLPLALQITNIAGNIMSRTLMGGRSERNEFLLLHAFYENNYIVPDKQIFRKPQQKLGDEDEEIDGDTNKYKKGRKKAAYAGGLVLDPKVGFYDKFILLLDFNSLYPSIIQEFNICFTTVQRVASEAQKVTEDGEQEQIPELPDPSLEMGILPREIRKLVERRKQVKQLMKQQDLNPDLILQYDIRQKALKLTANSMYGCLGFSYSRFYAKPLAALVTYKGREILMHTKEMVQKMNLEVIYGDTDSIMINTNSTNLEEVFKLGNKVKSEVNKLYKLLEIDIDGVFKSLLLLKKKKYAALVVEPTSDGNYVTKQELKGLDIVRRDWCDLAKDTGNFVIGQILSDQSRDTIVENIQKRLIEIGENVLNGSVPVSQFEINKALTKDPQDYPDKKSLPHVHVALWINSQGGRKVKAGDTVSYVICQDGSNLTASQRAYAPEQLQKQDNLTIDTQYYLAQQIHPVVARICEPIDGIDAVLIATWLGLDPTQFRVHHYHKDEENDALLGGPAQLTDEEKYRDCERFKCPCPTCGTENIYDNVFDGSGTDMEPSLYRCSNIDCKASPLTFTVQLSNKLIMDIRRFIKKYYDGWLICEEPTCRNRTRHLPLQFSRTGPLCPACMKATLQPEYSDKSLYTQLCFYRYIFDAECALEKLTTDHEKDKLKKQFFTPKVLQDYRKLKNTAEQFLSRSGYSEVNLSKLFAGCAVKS

VZV DNA polymerase = VZV DNA polymerase (Varicella-zoster virus, UniProt P09252); assay: Enzyme assay with VZV DNA polymerase; assay type: biochemical
Sequence of VZV DNA polymerase (P09252 whole entry): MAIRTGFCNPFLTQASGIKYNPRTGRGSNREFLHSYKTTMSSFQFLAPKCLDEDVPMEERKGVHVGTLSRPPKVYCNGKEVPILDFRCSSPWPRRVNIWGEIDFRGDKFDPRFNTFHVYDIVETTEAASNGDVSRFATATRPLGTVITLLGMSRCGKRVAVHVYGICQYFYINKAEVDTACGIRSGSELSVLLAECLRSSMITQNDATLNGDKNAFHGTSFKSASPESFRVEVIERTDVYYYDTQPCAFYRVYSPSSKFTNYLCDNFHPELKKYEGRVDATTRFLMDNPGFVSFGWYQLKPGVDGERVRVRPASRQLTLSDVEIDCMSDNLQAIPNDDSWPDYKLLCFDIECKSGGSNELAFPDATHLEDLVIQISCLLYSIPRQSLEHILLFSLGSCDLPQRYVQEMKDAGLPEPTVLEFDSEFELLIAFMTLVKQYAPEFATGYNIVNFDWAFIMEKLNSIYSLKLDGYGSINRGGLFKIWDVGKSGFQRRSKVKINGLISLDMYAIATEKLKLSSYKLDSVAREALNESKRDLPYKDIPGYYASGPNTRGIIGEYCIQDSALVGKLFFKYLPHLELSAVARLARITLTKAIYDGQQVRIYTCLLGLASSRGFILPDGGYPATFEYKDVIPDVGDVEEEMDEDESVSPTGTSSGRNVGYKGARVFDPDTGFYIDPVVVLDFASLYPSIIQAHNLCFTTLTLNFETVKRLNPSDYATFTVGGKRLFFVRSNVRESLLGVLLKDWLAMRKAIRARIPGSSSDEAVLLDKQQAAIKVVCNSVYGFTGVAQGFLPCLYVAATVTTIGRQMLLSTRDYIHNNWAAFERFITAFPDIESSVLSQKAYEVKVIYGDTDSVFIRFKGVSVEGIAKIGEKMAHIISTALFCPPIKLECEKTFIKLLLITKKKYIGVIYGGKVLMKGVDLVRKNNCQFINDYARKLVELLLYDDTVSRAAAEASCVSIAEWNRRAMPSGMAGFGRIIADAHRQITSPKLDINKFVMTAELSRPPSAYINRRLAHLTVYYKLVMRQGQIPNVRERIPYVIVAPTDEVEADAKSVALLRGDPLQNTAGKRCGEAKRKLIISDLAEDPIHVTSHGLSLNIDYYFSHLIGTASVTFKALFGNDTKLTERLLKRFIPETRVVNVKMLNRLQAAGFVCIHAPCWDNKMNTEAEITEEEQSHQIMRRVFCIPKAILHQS

HSV-1 DNA polymerase = HSV-1 DNA polymerase (Human herpesvirus 1, UniProt P04293); assay: Enzyme assay with HSV-1 DNA polymerase; assay type: biochemical
Sequence of HSV-1 DNA polymerase (P04293 whole entry): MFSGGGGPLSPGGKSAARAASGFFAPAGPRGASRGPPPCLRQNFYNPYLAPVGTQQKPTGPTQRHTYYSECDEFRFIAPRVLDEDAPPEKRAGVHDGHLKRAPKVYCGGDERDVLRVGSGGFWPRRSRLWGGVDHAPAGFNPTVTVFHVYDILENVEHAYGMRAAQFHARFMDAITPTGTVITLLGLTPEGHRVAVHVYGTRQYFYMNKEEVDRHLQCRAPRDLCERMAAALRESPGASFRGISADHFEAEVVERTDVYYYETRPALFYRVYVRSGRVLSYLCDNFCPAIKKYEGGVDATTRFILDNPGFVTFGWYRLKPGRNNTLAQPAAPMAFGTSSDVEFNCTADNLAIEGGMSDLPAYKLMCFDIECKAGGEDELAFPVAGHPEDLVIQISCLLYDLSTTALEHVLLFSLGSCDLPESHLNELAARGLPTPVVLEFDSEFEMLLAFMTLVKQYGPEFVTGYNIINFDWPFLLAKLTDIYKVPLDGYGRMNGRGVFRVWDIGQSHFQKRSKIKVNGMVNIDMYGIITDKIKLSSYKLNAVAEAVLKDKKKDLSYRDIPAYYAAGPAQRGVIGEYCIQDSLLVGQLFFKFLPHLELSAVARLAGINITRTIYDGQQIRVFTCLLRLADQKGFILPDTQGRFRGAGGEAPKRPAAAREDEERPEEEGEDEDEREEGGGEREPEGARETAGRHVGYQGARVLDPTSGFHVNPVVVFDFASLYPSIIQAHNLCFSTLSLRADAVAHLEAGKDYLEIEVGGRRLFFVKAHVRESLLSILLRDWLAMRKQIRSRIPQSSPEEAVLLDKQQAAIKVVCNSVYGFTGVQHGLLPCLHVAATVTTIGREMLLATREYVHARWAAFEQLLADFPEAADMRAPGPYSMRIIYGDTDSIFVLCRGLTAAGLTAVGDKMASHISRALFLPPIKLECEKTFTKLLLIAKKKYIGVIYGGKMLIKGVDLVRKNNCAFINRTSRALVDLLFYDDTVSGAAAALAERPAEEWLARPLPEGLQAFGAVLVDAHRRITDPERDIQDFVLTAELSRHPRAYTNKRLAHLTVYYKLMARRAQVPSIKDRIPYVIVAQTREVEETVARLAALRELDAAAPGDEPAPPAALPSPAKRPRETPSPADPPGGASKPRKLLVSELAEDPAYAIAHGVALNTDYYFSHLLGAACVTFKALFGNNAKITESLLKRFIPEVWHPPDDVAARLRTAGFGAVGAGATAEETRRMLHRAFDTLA

HIV-1 RT = HIV-1 RT (Human immunodeficiency virus type 1 group M subtype B, UniProt P03366); assay: HIV-1 reverse transcriptase assay with homopolymeric template/primers; assay type: biochemical
M184I HIV-1 RT = M184I HIV-1 RT (Human immunodeficiency virus type 1 group M subtype B, UniProt P03366, M783I); assay: Mutant HIV-1 RT assay
Y115F HIV-1 RT = Y115F HIV-1 RT (Human immunodeficiency virus type 1 group M subtype B, UniProt P03366, Y714F); assay: Mutant HIV-1 RT assay
[2] = IC50 HIV-1 RT, poly rA.dT template/primer, [3H]dTTP
[3] = read-out: IC50 Human DNA Pol β, activated calf thymus DNA, [3H]dTTP
[4] = read-out: IC50 Human DNA Pol α, activated calf thymus DNA, [3H]dTTP
[5] = read-out: IC50 VZV DNA Pol, poly dA.oligo dT, [3H]dTTP
[6] = read-out: IC50 HSV-1 DNA Pol, activated calf thymus DNA, [3H]dTTP
[7] = read-out: IC50 HIV-1 RT, poly rA.dT template/primer, [3H]dTTP

Sequence of HCMV DNA polymerase (UL54) (P08546 whole entry): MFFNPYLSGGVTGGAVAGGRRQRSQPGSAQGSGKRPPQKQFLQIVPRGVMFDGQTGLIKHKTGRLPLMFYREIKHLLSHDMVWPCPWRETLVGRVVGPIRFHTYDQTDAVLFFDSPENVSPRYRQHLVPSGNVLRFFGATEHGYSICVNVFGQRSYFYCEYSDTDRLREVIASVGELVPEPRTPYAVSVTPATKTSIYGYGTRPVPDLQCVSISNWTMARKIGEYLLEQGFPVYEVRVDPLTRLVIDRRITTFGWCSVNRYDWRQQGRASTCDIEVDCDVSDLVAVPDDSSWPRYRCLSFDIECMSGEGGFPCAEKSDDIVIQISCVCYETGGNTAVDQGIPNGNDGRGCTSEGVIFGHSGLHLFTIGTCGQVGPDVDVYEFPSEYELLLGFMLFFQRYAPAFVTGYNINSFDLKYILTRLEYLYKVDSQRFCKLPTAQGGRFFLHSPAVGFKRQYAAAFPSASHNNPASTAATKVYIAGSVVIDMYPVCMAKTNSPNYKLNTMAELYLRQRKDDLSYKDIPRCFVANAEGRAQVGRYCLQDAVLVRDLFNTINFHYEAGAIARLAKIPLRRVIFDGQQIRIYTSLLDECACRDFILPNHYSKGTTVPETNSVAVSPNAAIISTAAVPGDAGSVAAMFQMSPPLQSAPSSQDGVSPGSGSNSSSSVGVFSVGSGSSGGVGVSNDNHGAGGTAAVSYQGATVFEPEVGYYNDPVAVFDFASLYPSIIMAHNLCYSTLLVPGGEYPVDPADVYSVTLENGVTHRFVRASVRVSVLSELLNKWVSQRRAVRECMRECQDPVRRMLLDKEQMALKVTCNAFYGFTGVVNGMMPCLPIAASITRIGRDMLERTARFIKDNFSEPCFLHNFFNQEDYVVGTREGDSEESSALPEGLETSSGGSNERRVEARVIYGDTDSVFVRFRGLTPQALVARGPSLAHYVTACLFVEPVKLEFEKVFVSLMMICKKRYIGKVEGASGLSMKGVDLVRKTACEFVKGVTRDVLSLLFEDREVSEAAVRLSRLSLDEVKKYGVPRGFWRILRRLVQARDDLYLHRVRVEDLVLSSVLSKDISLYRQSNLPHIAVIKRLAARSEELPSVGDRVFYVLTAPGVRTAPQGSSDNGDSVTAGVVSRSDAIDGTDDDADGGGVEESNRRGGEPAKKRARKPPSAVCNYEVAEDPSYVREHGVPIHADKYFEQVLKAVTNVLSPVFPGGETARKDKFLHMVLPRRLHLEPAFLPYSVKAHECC

## O=c1[nH]c(=O)n([C@H]2C[C@H](O)[C@@H](COP(=O)(O)OP(=O)(O)OP(=O)(O)O)O2)cc1/C=C/Br [BVDU-TP, (E)-5-(2-Bromovinyl)-2′-deoxyuridine-5′-triphosphate, reference compound]
[1]; IC50 HCMV DNA Pol
  IC50: 3.6 ± 0.7 µM
Human DNA Pol β
  IC50: 26 ± 4 µM
Human DNA Pol α
  IC50: 21 ± 10 µM
VZV DNA polymerase
  IC50: 0.49 ± 0.09 µM
HSV-1 DNA polymerase
  IC50: 1.9 ± 0.9 µM
HIV-1 RT; [2]
  IC50: 0.89 ± 0.4 µM

## Cc1cn(C[C@H]2C[C@H]2COC(C(=O)O)P(=O)(O)O)c(=O)[nH]c1=O (relative stereo) [Compound 6b]
[1]
  superior activity against HCMV DNA polymerase compared to thymine-α-CNP: 8- to 13 fold
[1]; read-out: IC50 HCMV DNA Pol
  IC50: 4.6 ± 0.2 µM
Human DNA Pol β; [3]
  IC50: 390 ± 127 µM
Human DNA Pol α; [4]
  IC50: 183 ± 8 µM
VZV DNA polymerase; [5]
  IC50: 12 ± 3 µM
HSV-1 DNA polymerase; [6]
  IC50: 36 ± 12 µM
HIV-1 RT; [7]
  IC50: 440 ± 85 µM

## Cc1cn(Cc2ccccc2COC(C(=O)O)P(=O)(O)O)c(=O)[nH]c1=O (centres unmarked) [Compound 6d, 2-(2-((2,4-Dioxo-5-methyl-pyrimidin-1-yl)methyl)benzyloxy)-2-phosphonoacetic acid]
[1]
  superior activity against HCMV DNA polymerase compared to thymine-α-CNP: ~ 3 fold
Human DNA Pol β
  IC50: 76 ± 30 µM
Human DNA Pol α
  IC50: 75 ± 18 µM
VZV DNA polymerase
  IC50: 2.9 ± 0.7 µM
VZV DNA polymerase; ratio vs thymine-α-CNP
  more active against VZV DNA polymerase than thymine-α-CNP: 13 fold
HSV-1 DNA polymerase
  IC50: 7.5 ± 5 µM
HSV-1 DNA polymerase; ratio vs thymine-α-CNP
  more active against HSV-1 DNA polymerase than thymine-α-CNP: ~ 3 fold
HIV-1 RT; [2]
  IC50: 131 ± 86 µM

## Cc1cn(C[C@H]2CC=CC[C@H]2COC(C(=O)O)P(=O)(O)O)c(=O)[nH]c1=O (relative stereo) [Compound 6c]
[1]
  superior activity against HCMV DNA polymerase compared to thymine-α-CNP: 8- to 13 fold
[1]; read-out: IC50 HCMV DNA Pol
  IC50: 3 ± 0.5 µM
Human DNA Pol β; [3]
  IC50: > 500 µM
Human DNA Pol α; [4]
  IC50: 48 ± 36 µM
VZV DNA polymerase; [5]
  IC50: 8.5 ± 2.1 µM
HSV-1 DNA polymerase; [6]
  IC50: 14 ± 3 µM
HIV-1 RT; [7]
  IC50: 425 ± 106 µM

## Cc1cn(C[C@H]2CCC[C@H]2COC(C(=O)O)P(=O)(O)O)c(=O)[nH]c1=O (relative stereo) [Compound 6a]
[1]; read-out: IC50 HCMV DNA Pol
  IC50: 40 ± 25 µM
Human DNA Pol β; [3]
  IC50: > 500 µM
Human DNA Pol α; [4]
  IC50: 165 ± 100 µM
VZV DNA polymerase; [5]
  IC50: 73 ± 1 µM
HSV-1 DNA polymerase; [6]
  IC50: 14 ± 14 µM
HIV-1 RT; [7]
  IC50: ≥ 500 µM

## Cc1cn(CCCCOC(C(=O)O)P(=O)(O)O)c(=O)[nH]c1=O (centres unmarked) [Compound 6h, 2-(4-(2,4-Dioxo-5-methyl-pyrimidin-1-yl)butyloxy)-2-phosphonoacetic acid]
Human DNA Pol β
  IC50: 450 ± 105 µM
Human DNA Pol α
  IC50: 301 ± 51 µM
VZV DNA polymerase
  IC50: 27 ± 12 µM
HSV-1 DNA polymerase
  IC50: 45 ± 27 µM
HIV-1 RT; [2]
  IC50: 145 ± 106 µM

## Nc1ccn(C/C=C\COC(C(=O)O)P(=O)(O)O)c(=O)n1 (stereo not drawn) [Compound 6m, 2-Cis-(4-(4-amino-2-oxopyrimidin-1(2H)-yl)but-2-enyloxy)-2-phosphonoacetic acid]
[1]; IC50 HCMV DNA Pol
  IC50: 16 ± 8 µM
Human DNA Pol β
  IC50: > 500 µM
Human DNA Pol α
  IC50: 414 ± 22 µM
M184I HIV-1 RT
  IC50: > 1250 µM
VZV DNA polymerase
  IC50: 2.9 ± 0.9 µM
Y115F HIV-1 RT
  IC50: 408 ± 16 µM
HSV-1 DNA polymerase
  IC50: 12 ± 6 µM
HIV-1 RT; IC50 HIV-1 RT Poly rA.dT ([3H]dTTP), Table 7, Poly rA.dT, [3H]dTTP
  IC50: 270 ± 33 µM
HIV-1 RT; IC50 HIV-1 RT Poly rC.dG ([3H]dGTP), Poly rC.dG, [3H]dGTP
  IC50: > 500 µM
HIV-1 RT; IC50 HIV-1 RT Poly rI.dC ([3H]dCTP), Poly rI.dC, [3H]dCTP
  IC50: 273 ± 54 µM
HIV-1 RT; IC50 HIV-1 RT Poly rU.dA ([3H]dATP), Poly rU.dA, [3H]dATP
  IC50: > 500 µM
HIV-1 RT; [2]
  IC50: 270 ± 33 µM
HIV-1 RT; IC50 Wild-type HIV-1 RT, Table 8, wild-type RT
  IC50: 318 ± 73 µM

## Cc1cn(C[C@H]2CCCC[C@H]2COC(C(=O)O)P(=O)(O)O)c(=O)[nH]c1=O (relative stereo) [Compound 6e]
[1]
  superior activity against HCMV DNA polymerase compared to thymine-α-CNP: 8- to 13 fold
[1]; read-out: IC50 HCMV DNA Pol
  IC50: 4 µM
Human DNA Pol β; [3]
  IC50: > 500 µM
Human DNA Pol α; [4]
  IC50: 69 ± 21 µM
VZV DNA polymerase; [5]
  IC50: 16 ± 1 µM
HSV-1 DNA polymerase; [6]
  IC50: 8.6 ± 6.6 µM
HIV-1 RT; [7]
  IC50: ≥ 500 µM
